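Following 48 hours of exposure in 96-well plates, responses at five concentrations were used to interpolate endpoints linearly. TGI denotes the concentration required for complete inhibition of growth.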 *1 amine or outer side, *2 acyl side, *3 side chain or, on linkers, in order; H or OH if unused. Where a SMILES comes first, the peptide text is derived from it. Bridges are numbered along the chain shown (N, C = ends). Roman numbers before positions name the chains, in order. [ ]: non-standard residue; d: D form. Actinocin(9to1) = Cc1c2oc3c(C)ccc(C(=O)[*:1])c3nc-2c(C(=O)[*:2])c(N)c1=O; NMeV = CN[CH](C(=O)O)C(C)C; Sar = CNCC(=O)O
How the values were obtained:
Test in all cases: NCI anticancer screen, dose series, 48 h
[1] = tested on: KM12 colon
[2] = tested on: SK-MEL-28 melanoma
[3] = tested on: MCF7 breast
[4] = tested on: OVCAR-5 ovarian
[5] = tested on: HT29 colon
[6] = tested on: MDA-N
[7] = tested on: MOLT-4 leukemia
[8] = tested on: IGROV1 ovarian
[9] = tested on: COLO 205 colon
[10] = tested on: UO-31 renal
[11] = tested on: NCI/ADR-RES ovarian
[12] = tested on: A549 NSCLC
[13] = tested on: PC-3 prostate
[14] = tested on: BT-549 breast
[15] = tested on: HCC-2998 colon
[16] = tested on: MDA-MB-435
[17] = tested on: HS 578T breast
[18] = tested on: SK-MEL-5 melanoma
[19] = tested on: HCT-15 colon
[20] = tested on: M14 melanoma
[21] = tested on: SNB-75 CNS
[22] = tested on: K-562 leukemia
[23] = tested on: NCI-H522 lung
[24] = tested on: DU-145 prostate
[25] = tested on: UACC-62 melanoma
[26] = tested on: LOX IMVI melanoma
[27] = tested on: RXF 393 renal
[28] = tested on: SF-268 CNS
[29] = tested on: RPMI-8226 leukemia
[30] = tested on: SK-OV-3 ovarian
[31] = tested on: ACHN renal
[32] = tested on: SN12C renal
[33] = tested on: SNB-19 CNS
[34] = tested on: 786-0 renal
[35] = tested on: SF-539 CNS
[36] = tested on: OVCAR-3 ovarian
[37] = tested on: OVCAR-4 ovarian
[38] = tested on: SF-295 CNS
[39] = tested on: U251 CNS
[40] = tested on: HOP-92 NSCLC
[41] = tested on: SR leukemia
[42] = tested on: CCRF-CEM leukemia
[43] = tested on: TK-10 renal
[44] = tested on: HOP-62 NSCLC
[45] = tested on: MDA-MB-231 breast
[46] = tested on: HCT-116 colon
[47] = tested on: EKVX NSCLC
[48] = tested on: OVCAR-8 ovarian
[49] = tested on: SK-MEL-2 melanoma
[50] = tested on: NCI-H23 lung
[51] = tested on: UACC-257 melanoma
[52] = tested on: SW-620 colon
[53] = tested on: CAKI-1 renal
[54] = tested on: NCI-H460 lung
[55] = tested on: HL-60(TB) leukemia
[56] = tested on: MALME-3M melanoma
[57] = tested on: NCI-H226 lung
[58] = tested on: T-47D breast
[59] = tested on: A498 renal

SMILES: O=c1[nH]nc(-c2ccccc2)n1/N=C/c1c(O)ccc2ccccc12
- TGI [1]: > 100 µM
- TGI [2]: > 100 µM
- TGI [3]: > 100 µM
- TGI [4]: > 100 µM
- TGI [5]: > 100 µM
- TGI [6]: > 100 µM
- TGI [7]: > 100 µM
- TGI [8]: > 100 µM
- TGI [9]: > 100 µM
- TGI [10]: > 100 µM
- TGI [11]: > 100 µM
- TGI [12]: > 100 µM
- TGI [13]: > 100 µM
- TGI [14]: > 100 µM
- TGI [15]: > 100 µM
- TGI [16]: > 100 µM
- TGI [17]: 50.4 µM
- TGI [18]: > 100 µM
- TGI [19]: > 100 µM
- TGI [20]: > 100 µM
- TGI [21]: 93.6 µM
- TGI [22]: > 100 µM
- TGI [23]: > 100 µM
- TGI [24]: > 100 µM
- TGI [25]: > 100 µM
- TGI [26]: > 100 µM
- TGI [27]: 85.2 µM
- TGI [28]: > 100 µM
- TGI [29]: > 100 µM
- TGI [30]: 68.4 µM
- TGI [31]: > 100 µM
- TGI [32]: > 100 µM
- TGI [33]: 85.4 µM
- TGI [34]: > 100 µM
- TGI [35]: > 100 µM
- TGI [36]: 43.2 µM
- TGI [37]: 45.7 µM
- TGI [38]: 82.4 µM
- TGI [39]: 86.4 µM
- TGI [40]: > 100 µM
- TGI [41]: > 100 µM
- TGI [42]: > 100 µM
- TGI [43]: > 100 µM
- TGI [44]: > 100 µM
- TGI [45]: > 100 µM
- TGI [46]: > 100 µM
- TGI [47]: > 100 µM
- TGI [48]: > 100 µM
- TGI [49]: > 100 µM
- TGI [50]: > 100 µM
- TGI [51]: > 100 µM
- TGI [52]: > 100 µM

SMILES: COc1ccc2c(c1)N=C1CSC(c3ccccc3Cl)N1C2 (stereo not drawn)
- TGI [1]: 18.4 µM
- TGI [2]: 40.8 µM
- TGI [3]: 53.5 µM
- TGI [53]: 24.6 µM
- TGI [4]: 28.2 µM
- TGI [54]: 15.4 µM
- TGI [5]: 19.6 µM
- TGI [6]: 26.8 µM
- TGI [7]: 15.7 µM
- TGI [9]: 42.4 µM
- TGI [10]: 1.8 µM
- TGI [11]: 72.3 µM
- TGI [12]: 31.9 µM
- TGI [13]: 58.5 µM
- TGI [14]: > 100 µM
- TGI [15]: 18.1 µM
- TGI [16]: 27.7 µM
- TGI [17]: > 100 µM
- TGI [18]: 31.4 µM
- TGI [19]: 87.8 µM
- TGI [20]: 28.3 µM
- TGI [55]: 4.76 µM
- TGI [21]: 40.6 µM
- TGI [22]: 75.7 µM
- TGI [23]: 51.4 µM
- TGI [25]: 20.3 µM
- TGI [26]: 23 µM
- TGI [27]: 25.4 µM
- TGI [28]: 76.2 µM
- TGI [29]: 35.3 µM
- TGI [30]: 47.5 µM
- TGI [31]: 41.8 µM
- TGI [32]: 37.5 µM
- TGI [33]: > 100 µM
- TGI [34]: 31.6 µM
- TGI [35]: 22.6 µM
- TGI [37]: 35.6 µM
- TGI [38]: 42.4 µM
- TGI [39]: 66.8 µM
- TGI [40]: 82.5 µM
- TGI [41]: 16 µM
- TGI [56]: 73.9 µM
- TGI [43]: 41.8 µM
- TGI [57]: 50.5 µM
- TGI [44]: 34.5 µM
- TGI [45]: > 100 µM
- TGI [46]: 18.8 µM
- TGI [58]: > 100 µM
- TGI [47]: 22 µM
- TGI [48]: 42.4 µM
- TGI [49]: 30.3 µM
- TGI [50]: 49.9 µM
- TGI [51]: 32.7 µM
- TGI [52]: 39.5 µM

SMILES: CCc1ccc2[nH]c(O)c(-c3[nH]c4ccccc4c3N=O)c2c1
- TGI [1]: 4.51 µM
- TGI [2]: 26.7 µM
- TGI [3]: 6.05 µM
- TGI [53]: 19.8 µM
- TGI [4]: 58.2 µM
- TGI [54]: 21 µM
- TGI [5]: 25.5 µM
- TGI [6]: 20.5 µM
- TGI [7]: > 100 µM
- TGI [8]: 18.6 µM
- TGI [9]: 23.2 µM
- TGI [10]: 12 µM
- TGI [11]: 48.8 µM
- TGI [12]: 37 µM
- TGI [13]: 19.8 µM
- TGI [14]: 20.6 µM
- TGI [15]: 8.52 µM
- TGI [16]: 21.9 µM
- TGI [17]: 30.5 µM
- TGI [18]: 13.6 µM
- TGI [19]: 15.1 µM
- TGI [20]: 25.3 µM
- TGI [21]: 28.9 µM
- TGI [22]: 97.1 µM
- TGI [23]: 16 µM
- TGI [24]: 22.5 µM
- TGI [25]: 23 µM
- TGI [26]: 26.7 µM
- TGI [59]: 15 µM
- TGI [27]: 11.2 µM
- TGI [28]: 22.3 µM
- TGI [29]: > 100 µM
- TGI [30]: 12.1 µM
- TGI [31]: 14.7 µM
- TGI [32]: 18 µM
- TGI [33]: 31.6 µM
- TGI [34]: 18.9 µM
- TGI [36]: 14.4 µM
- TGI [37]: 21.8 µM
- TGI [38]: 20.5 µM
- TGI [39]: 21.5 µM
- TGI [41]: > 100 µM
- TGI [56]: 21.6 µM
- TGI [42]: > 100 µM
- TGI [43]: 23.7 µM
- TGI [57]: 62.5 µM
- TGI [44]: 27.2 µM
- TGI [45]: 40.7 µM
- TGI [46]: 10 µM
- TGI [58]: 32.8 µM
- TGI [47]: 20 µM
- TGI [48]: 32.2 µM
- TGI [49]: 15.3 µM
- TGI [50]: 19 µM
- TGI [51]: 28.5 µM
- TGI [52]: 89.9 µM

SMILES: Cc1c2oc3c(C)ccc(C(=O)NC4C(=O)NC(C(C)O)C(=O)N5CCCC5C(=O)N(C)CC(=O)N(C)C(C(C)C)C(=O)OC4C)c3nc-2c(C(=O)NC2C(=O)NC(C(C)O)C(=O)N3CCCC3C(=O)N(C)CC(=O)N(C)C(C(C)C)C(=O)OC2C)c(N)c1=O (stereo not drawn) (I: TTP[Sar][NMeV] / II: TTP[Sar][NMeV]; ester I:1-I:C, II:1-II:C; linker I:N-II:N via Actinocin(9to1); configuration not given here)
- TGI [1]: > 30.1 µM
- TGI [2]: 2.75 µM
- TGI [3]: 1.06 µM
- TGI [53]: > 100 µM
- TGI [4]: 44.2 µM
- TGI [54]: > 100 µM
- TGI [5]: 4.19 µM
- TGI [6]: 11.8 µM
- TGI [7]: 0.598 µM
- TGI [8]: > 100 µM
- TGI [9]: 0.762 µM
- TGI [10]: 19.6 µM
- TGI [11]: > 100 µM
- TGI [12]: 32.1 µM
- TGI [13]: > 100 µM
- TGI [14]: 1.03 µM
- TGI [15]: > 30.3 µM
- TGI [16]: 3.81 µM
- TGI [17]: 72 µM
- TGI [18]: 1.74 µM
- TGI [19]: > 100 µM
- TGI [20]: 3.77 µM
- TGI [55]: 5.12 µM
- TGI [21]: 1.95 µM
- TGI [22]: 3.43 µM
- TGI [23]: 1.14 µM
- TGI [24]: > 100 µM
- TGI [25]: 0.528 µM
- TGI [26]: 0.984 µM
- TGI [59]: 2.71 µM
- TGI [27]: 1.29 µM
- TGI [28]: > 100 µM
- TGI [29]: 1.55 µM
- TGI [30]: > 100 µM
- TGI [31]: 10.9 µM
- TGI [32]: > 100 µM
- TGI [33]: > 100 µM
- TGI [35]: 1.44 µM
- TGI [36]: 4.71 µM
- TGI [37]: > 63.3 µM
- TGI [38]: > 100 µM
- TGI [39]: > 100 µM
- TGI [41]: 0.047 µM
- TGI [42]: 5 µM
- TGI [43]: 6.18 µM
- TGI [57]: 0.803 µM
- TGI [44]: 10 µM
- TGI [45]: > 100 µM
- TGI [46]: > 100 µM
- TGI [58]: > 100 µM
- TGI [47]: > 42.2 µM
- TGI [48]: > 82.4 µM
- TGI [49]: 1.03 µM
- TGI [50]: 4.8 µM
- TGI [51]: 3.2 µM
- TGI [52]: > 100 µM
